Measured values reported in ChEMBL document CHEMBL3580659, “One-pot multicomponent synthesis of indole incorporated thiazolylcoumarins and their antibacterial, anticancer and DNA cleavage studies” (2015).

Key:
Assay type in all cases: functional
HCT-116 [1] = test: Cytotoxicity against human HCT116 cells assessed as cell growth level at 100 uM after 48 hrs by sulforhodamine B assay
MCF7 = test: Cytotoxicity against human MCF7 cells assessed as cell growth level at 10 uM after 48 hrs by sulforhodamine B assay
T47D = test: Cytotoxicity against human T47D cells assessed as cell growth level at 100 uM after 48 hrs by sulforhodamine B assay
HCC 2998 [2] = test: Cytotoxicity against human HCC2998 cells assessed as cell growth level at 1 uM after 48 hrs by sulforhodamine B assay
SK-MEL-5 [3] = test: Cytotoxicity against human SK-MEL-5 cells assessed as cell growth level at 1 uM after 48 hrs by sulforhodamine B assay
OVCAR-4 [4] = test: Cytotoxicity against human OVCAR4 cells assessed as cell growth level at 1 uM after 48 hrs by sulforhodamine B assay
OVCAR-5 = test: Cytotoxicity against human OVCAR5 cells assessed as cell growth level at 10 nM after 48 hrs by sulforhodamine B assay
HT-29 = test: Cytotoxicity against human HT-29 cells assessed as cell growth level at 10 nM after 48 hrs by sulforhodamine B assay
SF-295 [5] = test: Cytotoxicity against human SF295 cells after 48 hrs by sulforhodamine B assay; conditions: SF-295, 48 h
NCI-H322M [6] = test: Cytotoxicity against human NCI-H322M cells assessed as cell growth level at 10 nM after 48 hrs by sulforhodamine B assay
OVCAR-8 [7] = test: Cytotoxicity against human OVCAR8 cells assessed as cell growth level at 1 uM after 48 hrs by sulforhodamine B assay
SNB-75 = test: Cytotoxicity against human SNB75 cells assessed as cell growth level at 1 uM after 48 hrs by sulforhodamine B assay
HCT-15 = test: Cytotoxicity against human HCT15 cells assessed as cell growth level at 100 nM after 48 hrs by sulforhodamine B assay
CCRF-CEM = test: Cytotoxicity against human CCRF-CEM cells assessed as cell growth level at 10 nM after 48 hrs by sulforhodamine B assay
SR = test: Cytotoxicity against human SR cells assessed as cell growth level at 10 nM after 48 hrs by sulforhodamine B assay
786-0 = test: Cytotoxicity against human 786-0 cells after 48 hrs by sulforhodamine B assay; conditions: 786-0, 48 h
HOP-92 = test: Cytotoxicity against human HOP92 cells assessed as cell growth level at 100 nM after 48 hrs by sulforhodamine B assay
NCI-H23 = test: Cytotoxicity against human NCI-H23 cells assessed as cell growth level at 10 nM after 48 hrs by sulforhodamine B assay
A549 = test: Cytotoxicity against human A549/ATCC cells assessed as cell growth level at 1 uM after 48 hrs by sulforhodamine B assay
COLO 205 = test: Cytotoxicity against human COLO205 cells assessed as cell growth level at 100 nM after 48 hrs by sulforhodamine B assay
OVCAR-8 [8] = test: Cytotoxicity against human OVCAR8 cells assessed as cell growth level at 10 uM after 48 hrs by sulforhodamine B assay
M14 = test: Cytotoxicity against human M14 cells assessed as cell growth level at 1 uM after 48 hrs by sulforhodamine B assay
A498 = test: Cytotoxicity against human A498 cells assessed as cell growth level at 100 uM after 48 hrs by sulforhodamine B assay
Escherichia coli = test: Antibacterial activity against Escherichia coli assessed as bacterial growth inhibition at 50 ug/ml after 24 hrs by cup-plate agar diffusion method; conditions: read-out: IZ
SF-295 [9] = test: Cytotoxicity against human SF295 cells assessed as cell growth level at 1 uM after 48 hrs by sulforhodamine B assay
UACC-257 = test: Cytotoxicity against human UACC257 cells after 48 hrs by sulforhodamine B assay; conditions: UACC-257, 48 h
HCT-116 [10] = test: Cytotoxicity against human HCT116 cells assessed as cell growth level at 10 nM after 48 hrs by sulforhodamine B assay
SK-MEL-5 [11] = test: Cytotoxicity against human SK-MEL-5 cells assessed as cell growth level at 10 uM after 48 hrs by sulforhodamine B assay
OVCAR-4 [12] = test: Cytotoxicity against human OVCAR4 cells assessed as cell growth level at 100 uM after 48 hrs by sulforhodamine B assay
NCI-H322M [13] = test: Cytotoxicity against human NCI-H322M cells assessed as cell growth level at 10 uM after 48 hrs by sulforhodamine B assay
KM12 = test: Cytotoxicity against human KM12 cells assessed as cell growth level at 100 uM after 48 hrs by sulforhodamine B assay
SF-539 = test: Cytotoxicity against human SF539 cells after 48 hrs by sulforhodamine B assay; conditions: SF-539, 48 h
CAKI-1 = test: Cytotoxicity against human CAKI-1 cells assessed as cell growth level at 10 nM after 48 hrs by sulforhodamine B assay
NCI-H460 = test: Cytotoxicity against human NCI-H460 cells assessed as cell growth level at 10 uM after 48 hrs by sulforhodamine B assay
UO-31 = test: Cytotoxicity against human UO31 cells assessed as cell growth level at 10 nM after 48 hrs by sulforhodamine B assay
RPMI-8226 = test: Cytotoxicity against human RPMI8226 cells assessed as cell growth level at 10 nM after 48 hrs by sulforhodamine B assay
Malme-3M = test: Cytotoxicity against human MALME-3M cells after 48 hrs by sulforhodamine B assay
HCC 2998 [14] = test: Cytotoxicity against human HCC2998 cells after 48 hrs by sulforhodamine B assay; conditions: HCC 2998, 48 h
[15] = read-out: LC50 (the source's name)
[16] = read-out: pLC50 (the source's name) (converted)

## O=c1oc2ccccc2cc1-c1csc(N/N=C/c2c[nH]c3ccccc23)n1
HCT-116 [1]
  Activity: -66%
MCF7
  Activity: 8.91%
T47D
  Activity: -35%
HCC 2998 [2]
  Activity: 84%
SK-MEL-5 [3]
  Activity: 90%
OVCAR-4 [4]
  Activity: 85%
OVCAR-5
  Activity: 102%
HT-29
  Activity: 106%
SF-295 [5]; read-out: GI50
  GI50: 2.23 µM
SF-295 [5]; [15]
  CC50: > 100 µM
SF-295 [5]; read-out: TGI
  TGI: 6.76 µM
SF-295 [5]; read-out: pGI50 (converted)
  GI50: 2.24 µM
SF-295 [5]; [16]
  CC50: > 100 µM
SF-295 [5]; read-out: pTGI (converted)
  TGI: 6.76 µM
NCI-H322M [6]
  Activity: 103%
OVCAR-8 [7]
  Activity: 94%
SNB-75
  Activity: 74%
HCT-15
  Activity: 96%
CCRF-CEM
  Activity: 100%
SR
  Activity: 94%
786-0; read-out: GI50
  GI50: 1.35 µM
786-0; [15]
  CC50: > 100 µM
786-0; read-out: TGI
  TGI: 4.09 µM
786-0; read-out: pGI50 (converted)
  GI50: 1.35 µM
786-0; [16]
  CC50: > 100 µM
786-0; read-out: pTGI (converted)
  TGI: 4.07 µM
HOP-92
  Activity: 94%
NCI-H23
  Activity: 86%
A549
  Activity: 68%
COLO 205
  Activity: 115%
OVCAR-8 [8]
  Activity: 2.99%
M14
  Activity: 89%
A498
  Activity: -53%
Escherichia coli
  zone of inhibition at 50 µg/mL: 15 mm
SF-295 [9]
  Activity: 80%
UACC-257; read-out: GI50
  GI50: 2.15 µM
UACC-257; [15]
  CC50: > 100 µM
UACC-257; read-out: TGI
  TGI: 5.63 µM
UACC-257; read-out: pGI50 (converted)
  GI50: 2.14 µM
UACC-257; [16]
  CC50: > 100 µM
UACC-257; read-out: pTGI (converted)
  TGI: 5.62 µM
HCT-116 [10]
  Activity: 92%
SK-MEL-5 [11]
  Activity: 69.78%
OVCAR-4 [12]
  Activity: -24%
NCI-H322M [13]
  Activity: 15.29%
KM12
  Activity: -52%
SF-539; read-out: GI50
  GI50: 1.58 µM
SF-539; [15]
  CC50: 7.25 µM
SF-539; read-out: TGI
  TGI: 3.38 µM
SF-539; read-out: pGI50 (converted)
  GI50: 1.58 µM
SF-539; [16]
  CC50: 7.24 µM
SF-539; read-out: pTGI (converted)
  TGI: 3.39 µM
CAKI-1
  Activity: 95%
NCI-H460
  Activity: 5.79%
UO-31
  Activity: 97%
RPMI-8226
  Activity: 99%
Malme-3M; read-out: GI50
  GI50: 1.59 µM
Malme-3M; [15]
  CC50: > 100 µM
Malme-3M; read-out: TGI
  TGI: 4.17 µM
Malme-3M; read-out: pGI50 (converted)
  GI50: 1.58 µM
Malme-3M; [16]
  CC50: > 100 µM
Malme-3M; read-out: pTGI (converted)
  TGI: 4.17 µM
HCC 2998 [14]; read-out: GI50
  GI50: 2.82 µM
HCC 2998 [14]; [15]
  CC50: > 100 µM
HCC 2998 [14]; read-out: TGI
  TGI: 6.8 µM
HCC 2998 [14]; read-out: pGI50 (converted)
  GI50: 2.82 µM
HCC 2998 [14]; [16]
  CC50: > 100 µM
HCC 2998 [14]; read-out: pTGI (converted)
  TGI: 6.76 µM
